This passage reports IC50 results from US20210130401A1, “PEPTIDOMIMETIC INHIBITORS OF THE WDR5-MLL INTERACTION” (THE REGENTS OF THE UNIVERSITY OF MICHIGAN, priority 2017, published 2021).

In the assay the test system is MOLM-13 leukemia cells carrying MLL-AF9 fusion. In words: cell viability assay (WST-8), MOLM-13. The class given is cell-based. The following applies: Homo sapiens, MOLM-13, 96 h. A general note: Formazan colour is commonly taken as a measure of viable cells.
Where [1] appears, read: Table 2A, 4 days treatment, read-out: MOLM-13 IC50.

Read-outs that look alike come from different tables or passages of the source. Starred links: 1 amine or outer side, 2 acyl side, 3 side chain; linkers in the order of their positions; H or OH if unused. Positions of bridges follow the written chain, without caps; N, C: chain ends. Non-standard residues stand in square brackets, D forms with d. Residues, ends and D or L forms follow the SMILES beside them. *: point of attachment. Arg(Nω,Nω'-propylene) = N[C@@H](CCCNC1=NCCCN1)C(=O)O; Arg(NO2) = N=C(NCCC[C@H](N)C(=O)O)N[N+](=O)[O-]; dαMeDab = C[C@](CCN[*:3])(N[*:1])C(=O)[*:2]; Arg(Me2a) = CN(C)C(=N)NCCC[C@H](N)C(=O)O; Arg(ω-nPr) = CCCNC(=N)NCCC[C@H](N)C(=O)O; Arg(Me2s) = CN=C(NC)NCCC[C@H](N)C(=O)O; dPhe(3-F) = N[C@H](Cc1cccc(F)c1)C(=O)O; dPhe(4-F) = N[C@H](Cc1ccc(F)cc1)C(=O)O; Arg(Et) = CCNC(=N)NCCC[C@H](N)C(=O)O; dGly(cPent) = N[C@@H](C(=O)O)C1CCCC1; dPhe(2-F) = N[C@H](Cc1ccccc1F)C(=O)O; dCha = N[C@H](CC1CCCCC1)C(=O)O; dChg = N[C@@H](C(=O)O)C1CCCCC1; Isobutyryl = CC(C)C(=O)*; Abu = CC[C@H](N)C(=O)O

Procedure: To assess cell viability, MOLM-13 leukemia cells carrying MLL-AF9 fusion, MV4;11 leukemia cells carrying MLL-AF4 fusion or HL-60 leukemia cells carrying no MLL fusion were seeded 1×10^4 cell/well in 96-well plates and treated with an inhibitor for 4 days at different concentrations, in culture media containing 0.2% DMSO as the final concentration. Cell viability was determined using the WST-8 cell proliferation assay kit (Dojindo Molecular Technologies) according to manufacturer's instructions. Three independent experiments in triplicates were performed.

With `CC[C@@H]1NC(=O)[C@H](CCCN/C(=N/C)NC)NC(=O)[C@](C)(NC(=O)C(C)C)CCNC(=O)[C@@H](CC2CCCCC2)NC1=O` [Cpd. No. 31, N-((3R,6S,9S,12R)-3-(cyclohexylmethyl)-9-(3-((E)-2,3-dimethylguanidino)propyl)-6-ethyl-12-methyl-2,5,8,11-tetraoxo-1,4,7,10-tetraazacyclotetradecan-12-yl)isobutyramide] (Isobutyryl-[dαMeDab][Arg(Me2s)][Abu][dCha]; lactam 1-C), the IC50 (read-out: MOLM-13 IC50 (μM)) was greater than 10 µM.

Turning to `CC[C@@H]1NC(=O)[C@H](CCCNC(=N)N[N+](=O)[O-])NC(=O)[C@](C)(NC(=O)C(C)C)CCNC(=O)[C@@H](CC2CCCCC2)NC1=O` [Cpd. No. 32, N-((3R,6S,9S,12R)-3-(cyclohexylmethyl)-6-ethyl-12-methyl-9-(3-(3-nitroguanidino)propyl)-2,5,8,11-tetraoxo-1,4,7,10-tetraazacyclotetradecan-12-yl)isobutyramide] (Isobutyryl-[dαMeDab][Arg(NO2)][Abu][dCha]; lactam 1-C), under setting [1], the IC50 was greater than 10 µM.

For `CC[C@@H]1NC(=O)[C@H](CCCNC(=N)NC#N)NC(=O)[C@](C)(NC(=O)C(C)C)CCNC(=O)[C@@H](CC2CCCCC2)NC1=O` [Cpd. No. 33, N-((3R,6S,9S,12R)-9-(3-(3-cyanoguanidino)propyl)-3-(cyclohexylmethyl)-6-ethyl-12-methyl-2,5,8,11-tetraoxo-1,4,7,10-tetraazacyclotetradecan-12-yl)isobutyramide], the IC50 (read-out: MOLM-13 IC50 (μM)) turned out to be 6.5 µM.

Take `CC[C@@H]1NC(=O)[C@H](CCCNC(=N)NN)NC(=O)[C@](C)(NC(=O)C(C)C)CCNC(=O)[C@@H](CC2CCCCC2)NC1=O` [Cpd. No. 34, N-((3R,6S,9S,12R)-3-(cyclohexylmethyl)-6-ethyl-9-(3-(hydrazinecarboximidamido)propyl)-12-methyl-2,5,8,11-tetraoxo-1,4,7,10-tetraazacyclotetradecan-12-yl)isobutyramide]: for the setting “read-out: MOLM-13 IC50 (μM)”, the IC50 is greater than 10 µM.

`CC[C@@H]1NC(=O)[C@H](CCCNC(=N)NC(=N)N)NC(=O)[C@](C)(NC(=O)C(C)C)CCNC(=O)[C@@H](CC2CCCCC2)NC1=O` [Cpd. No. 35, N-((3R,6S,9S,12R)-9-(3-(3-carbamimidoylguanidino)propyl)-3-(cyclohexylmethyl)-6-ethyl-12-methyl-2,5,8,11-tetraoxo-1,4,7,10-tetraazacyclotetradecan-12-yl)isobutyramide]: the 50% inhibitory concentration (IC50) (read-out: MOLM-13 IC50 (μM)) is greater than 10 µM.

`CC[C@@H]1NC(=O)[C@H](CCCNC(=N)N(C)C)NC(=O)[C@](C)(NC(=O)C(C)C)CCNC(=O)[C@@H](CC2CCCCC2)NC1=O` [Cpd. No. 36, N-((3R,6S,9S,12R)-3-(cyclohexylmethyl)-9-(3-(3,3-dimethylguanidino)propyl)-6-ethyl-12-methyl-2,5,8,11-tetraoxo-1,4,7,10-tetraazacyclotetradecan-12-yl)isobutyramide] (Isobutyryl-[dαMeDab][Arg(Me2a)][Abu][dCha]; lactam 1-C): the IC50 (read-out: MOLM-13 IC50 (μM)) was greater than 10 µM.

`CC[C@@H]1NC(=O)[C@H](CCCNC2=NCCCN2)NC(=O)[C@](C)(NC(=O)C(C)C)CCNC(=O)[C@@H](CC2CCCCC2)NC1=O` [Cpd. No. 40, N-((3R,6S,9S,12R)-3-(cyclohexylmethyl)-6-ethyl-12-methyl-2,5,8,11-tetraoxo-9-(3-((1,4,5,6-tetrahydropyrimidin-2-yl)amino)propyl)-1,4,7,10-tetraazacyclotetradecan-12-yl)isobutyramide] (Isobutyryl-[dαMeDab][Arg(Nω,Nω'-propylene)][Abu][dCha]; lactam 1-C): the half-inhibitory concentration (IC50) (read-out: MOLM-13 IC50 (μM)) turned out to be 0.88 µM.

With `CC[C@@H]1NC(=O)[C@H](CCCN2CCN(C)CC2)NC(=O)[C@](C)(NC(=O)C(C)C)CCNC(=O)[C@@H](CC2CCCCC2)NC1=O` [Cpd. No. 43, N-((3R,6S,9S,12R)-3-(cyclohexylmethyl)-6-ethyl-12-methyl-9-(3-(4-methylpiperazin-1-yl)propyl)-2,5,8,11-tetraoxo-1,4,7,10-tetraazacyclotetradecan-12-yl)isobutyramide], the 50% inhibitory concentration (IC50) (read-out: MOLM-13 IC50 (μM)) was greater than 10 µM.

Take `CCNC(=N)NCCC[C@@H]1NC(=O)[C@](C)(NC(=O)C(C)C)CCNC(=O)[C@@H](CC2CCCCC2)NC(=O)[C@H](CC)NC1=O` [Cpd. No. 45, N-((3R,6S,9S,12R)-3-(cyclohexylmethyl)-6-ethyl-9-(3-(3-ethylguanidino)propyl)-12-methyl-2,5,8,11-tetraoxo-1,4,7,10-tetraazacyclotetradecan-12-yl)isobutyramide] (Isobutyryl-[dαMeDab][Arg(Et)][Abu][dCha]; lactam 1-C): the IC50 (read-out: MOLM-13 IC50 (μM)) came to 3.4 µM.

Turning to `CCCNC(=N)NCCC[C@@H]1NC(=O)[C@](C)(NC(=O)C(C)C)CCNC(=O)[C@@H](CC2CCCCC2)NC(=O)[C@H](CC)NC1=O` [Cpd. No. 46, N-((3R,6S,9S,12R)-3-(cyclohexylmethyl)-6-ethyl-12-methyl-2,5,8,11-tetraoxo-9-(3-(3-propylguanidino)propyl)-1,4,7,10-tetraazacyclotetradecan-12-yl)isobutyramide] (Isobutyryl-[dαMeDab][Arg(ω-nPr)][Abu][dCha]; lactam 1-C), the IC50 (read-out: MOLM-13 IC50 (μM)) is greater than 10 µM.

For `CCCCNC(=N)NCCC[C@@H]1NC(=O)[C@](C)(NC(=O)C(C)C)CCNC(=O)[C@@H](CC2CCCCC2)NC(=O)[C@H](CC)NC1=O` [Cpd. No. 47, N-((3R,6S,9S,12R)-9-(3-(3-butylguanidino)propyl)-3-(cyclohexylmethyl)-6-ethyl-12-methyl-2,5,8,11-tetraoxo-1,4,7,10-tetraazacyclotetradecan-12-yl)isobutyramide], the IC50 (read-out: MOLM-13 IC50 (μM)) is greater than 10 µM.

On to `CC[C@@H]1NC(=O)[C@H](CCCNC(=N)N)NC(=O)[C@](C)(NC(=O)C(C)C)CCNC(=O)[C@@H](C)NC1=O` [Cpd. No. 48, N-((3R,6S,9S,12R)-6-ethyl-9-(3-guanidinopropyl)-3,12-dimethyl-2,5,8,11-tetraoxo-1,4,7,10-tetraazacyclotetradecan-12-yl)isobutyramide] (Isobutyryl-[dαMeDab]R[Abu][dA]; lactam 1-C), for which, under setting [1], the IC50 is 1.72 µM.

For the compound `CC[C@@H]1NC(=O)[C@H](CCCNC(=N)N)NC(=O)[C@](C)(NC(=O)C(C)C)CCNC(=O)[C@@H](CC(C)C)NC1=O` [Cpd. No. 49, N-((3R,6S,9S,12R)-6-ethyl-9-(3-guanidinopropyl)-3-isobutyl-12-methyl-2,5,8,11-tetraoxo-1,4,7,10-tetraazacyclotetradecan-12-yl)isobutyramide] (Isobutyryl-[dαMeDab]R[Abu][dL]; lactam 1-C), the IC50 under setting [1] amounted to 1.88 µM.

As to `CC[C@@H]1NC(=O)[C@H](CCCNC(=N)N)NC(=O)[C@](C)(NC(=O)C(C)C)CCNC(=O)[C@@H](C2CCCC2)NC1=O` [Cpd. No. 50, N-((3R,6S,9S,12R)-3-cyclopentyl-6-ethyl-9-(3-guanidinopropyl)-12-methyl-2,5,8,11-tetraoxo-1,4,7,10-tetraazacyclotetradecan-12-yl)isobutyramide] (Isobutyryl-[dαMeDab]R[Abu][dGly(cPent)]; lactam 1-C), for the setting “read-out: MOLM-13 IC50 (μM)”, the 50% inhibitory concentration (IC50) is 1.19 µM.

Take `CC[C@@H]1NC(=O)[C@H](CCCNC(=N)N)NC(=O)[C@](C)(NC(=O)C(C)C)CCNC(=O)[C@@H](C2CCCCC2)NC1=O` [Cpd. No. 51, N-((3R,6S,9S,12R)-3-cyclohexyl-6-ethyl-9-(3-guanidinopropyl)-12-methyl-2,5,8,11-tetraoxo-1,4,7,10-tetraazacyclotetradecan-12-yl)isobutyramide] (Isobutyryl-[dαMeDab]R[Abu][dChg]; lactam 1-C): the concentration for half-maximal inhibition (IC50) (read-out: MOLM-13 IC50 (μM)) turned out to be 0.64 µM.

For the compound `CC[C@@H]1NC(=O)[C@H](CCCNC(=N)N)NC(=O)[C@](C)(NC(=O)C(C)C)CCNC(=O)[C@@H](CC2CCCCC2)NC1=O` [Cpd. No. 52, N-((3R,6S,9S,12R)-3-(cyclohexylmethyl)-6-ethyl-9-(3-guanidinopropyl)-12-methyl-2,5,8,11-tetraoxo-1,4,7,10-tetraazacyclotetradecan-12-yl)isobutyramide] (Isobutyryl-[dαMeDab]R[Abu][dCha]; lactam 1-C), the IC50 (read-out: MOLM-13 IC50 (μM)) is 1.49 µM.

As to `CC[C@@H]1NC(=O)[C@H](CCCNC(=N)N)NC(=O)[C@](C)(NC(=O)C(C)C)CCNC(=O)[C@@H](Cc2ccccc2)NC1=O` [Cpd. No. 54, N-((3R,6S,9S,12R)-3-benzyl-6-ethyl-9-(3-guanidinopropyl)-12-methyl-2,5,8,11-tetraoxo-1,4,7,10-tetraazacyclotetradecan-12-yl)isobutyramide] (Isobutyryl-[dαMeDab]R[Abu][dF]; lactam 1-C), under setting [1], the IC50 turned out to be 1.57 µM.

With `CC[C@@H]1NC(=O)[C@H](CCCNC(=N)N)NC(=O)[C@](C)(NC(=O)C(C)C)CCNC(=O)[C@@H](Cc2ccccc2F)NC1=O` [Cpd. No. 55, N-((3R,6S,9S,12R)-6-ethyl-3-(2-fluorobenzyl)-9-(3-guanidinopropyl)-12-methyl-2,5,8,11-tetraoxo-1,4,7,10-tetraazacyclotetradecan-12-yl)isobutyramide] (Isobutyryl-[dαMeDab]R[Abu][dPhe(2-F)]; lactam 1-C), the IC50 (read-out: MOLM-13 IC50 (μM)) was found to be 3.59 µM.

Consider `CC[C@@H]1NC(=O)[C@H](CCCNC(=N)N)NC(=O)[C@](C)(NC(=O)C(C)C)CCNC(=O)[C@@H](Cc2cccc(F)c2)NC1=O` [Cpd. No. 56, N-((3R,6S,9S,12R)-6-ethyl-3-(3-fluorobenzyl)-9-(3-guanidinopropyl)-12-methyl-2,5,8,11-tetraoxo-1,4,7,10-tetraazacyclotetradecan-12-yl)isobutyramide] (Isobutyryl-[dαMeDab]R[Abu][dPhe(3-F)]; lactam 1-C), for which the half-maximal inhibitory concentration (IC50) (read-out: MOLM-13 IC50 (μM)) was determined as 1.29 µM.

Turning to `CC[C@@H]1NC(=O)[C@H](CCCNC(=N)N)NC(=O)[C@](C)(NC(=O)C(C)C)CCNC(=O)[C@@H](Cc2ccc(F)cc2)NC1=O` [Cpd. No. 57, N-((3R,6S,9S,12R)-6-ethyl-3-(4-fluorobenzyl)-9-(3-guanidinopropyl)-12-methyl-2,5,8,11-tetraoxo-1,4,7,10-tetraazacyclotetradecan-12-yl)isobutyramide] (Isobutyryl-[dαMeDab]R[Abu][dPhe(4-F)]; lactam 1-C), the half-maximal inhibitory concentration (IC50) (read-out: MOLM-13 IC50 (μM)) worked out at 6.51 µM.

Broadly, the IC50 is the point on the concentration scale where inhibition reaches its midpoint.
